Measured values as given in patent US10947188B2, “Small molecule ferroptosis inducers” (THE TRUSTEES OF COLUMBIA UNIVERSITY IN THE CITY OF NEW YORK, priority 2016, dated 2021).

Assays:
HT-1080 = assay: Modulatory profiling: Alamar Blue viability, lethal compound cotreated with death modulator (EC50, AUC); assay type: cell-based; set-up: AUC, modulator HT.3MA / AUC, modulator HT.ALLN / AUC HT.ATA / AUC HT.ActD / AUC HT.BHA / AUC HT.BHT / AUC HT.BocD / AUC HT.CHX / AUC HT.Co2+ / AUC HT.DPQ / AUC HT.EGTA / AUC HT.Lmim / AUC HT.NAD+ / AUC HT.Nec-1 / AUC HT.SP600125 / AUC HT.TLCK / AUC HT.U0126: unit not given beside the values; conditions: for AUC HT.ATA: HT-1080, modulator ATA; for AUC HT.ActD: HT-1080, modulator ActD; for AUC HT.BHA: HT-1080, modulator BHA; for AUC HT.BHT: HT-1080, modulator BHT; for AUC HT.BocD: HT-1080, modulator BocD; for AUC HT.CHX: HT-1080, modulator CHX; for AUC HT.Co2+: HT-1080, modulator Co2+; for AUC HT.CspA: HT-1080, modulator CspA; for AUC HT.DPQ: HT-1080, modulator DPQ; for AUC HT.EGTA: HT-1080, modulator EGTA; for AUC HT.Gd3+: HT-1080, modulator Gd3+; for AUC HT.LNAME: HT-1080, modulator LNAME; for AUC HT.Lmim: HT-1080, modulator Lmim; for AUC HT.NAD+: HT-1080, modulator NAD+; for AUC HT.NMMA: HT-1080, modulator NMMA; for HT.atoc (AUC) / HT.bCarotene (AUC) / HT.deferox (AUC) / HT.digoxin (AUC) / HT.trolox (AUC) / HT.zVAD (AUC): HT-1080; for HT.atoc (AUC): modulator atoc; for HT.bCarotene (AUC): modulator bCarotene; for HT.deferox (AUC): modulator deferox; for HT.digoxin (AUC): modulator digoxin; for HT.trolox (AUC): modulator trolox; for HT.zVAD (AUC): modulator zVAD; as to AUC HT.BHA: reference of the scale not given here; as to AUC HT.EGTA: reference of the scale not given here
BJeLR = assay: as above; assay type: cell-based, human; set-up: AUC, modulator BJ.Gd3+ / AUC, modulator BJ.LNAME / AUC, modulator BJ.Lmin / AUC, modulator BJ.3MA / AUC, modulator BJ.ALLN / AUC, modulator BJ.Boc D / AUC, modulator BJ.CHX / AUC, modulator BJ.Co2+ / AUC, modulator BJ.Nec-1 / AUC, modulator BJ.Pepstatin / AUC, modulator BJ.TLCK / AUC, modulator BJ.atoc / AUC, modulator BJ.trolox / AUC, modulator BJ.zVAD: unit not given beside the values; conditions: BJeLR cells, modulatory profile value (AUC); for AUC, modulator BJ.3MA: lethal compound cotreated with modulator 3MA; for AUC, modulator BJ.ALLN: lethal compound cotreated with modulator ALLN; for AUC, modulator BJ.Boc D: lethal compound cotreated with modulator Boc D; for AUC, modulator BJ.CHX: lethal compound cotreated with modulator CHX; for AUC, modulator BJ.Co2+: lethal compound cotreated with modulator Co2+; for AUC, modulator BJ.DPQ: lethal compound cotreated with modulator DPQ; for AUC, modulator BJ.Gd3+: lethal compound cotreated with modulator Gd3+; for AUC, modulator BJ.LNAME: lethal compound cotreated with modulator LNAME; for AUC, modulator BJ.Lmin/NAD+: lethal compound cotreated with modulator Lmin/NAD+; for AUC, modulator BJ.Lmin: lethal compound cotreated with modulator Lmin; for AUC, modulator BJ.NAD+: lethal compound cotreated with modulator NAD+; for AUC, modulator BJ.NMMA: lethal compound cotreated with modulator NMMA; for AUC, modulator BJ.Nec-1: lethal compound cotreated with modulator Nec-1; for AUC, modulator BJ.Pepstatin: lethal compound cotreated with modulator Pepstatin; for AUC, modulator BJ.TLCK: lethal compound cotreated with modulator TLCK; as to AUC, modulator BJ.3MA: reference of the scale not given here; as to AUC, modulator BJ.ALLN: reference of the scale not given here; as to AUC, modulator BJ.Boc D: reference of the scale not given here; as to AUC, modulator BJ.CHX: reference of the scale not given here; as to AUC, modulator BJ.Co2+: reference of the scale not given here; as to AUC, modulator BJ.DPQ: reference of the scale not given here; as to AUC, modulator BJ.Gd3+: reference of the scale not given here; as to AUC, modulator BJ.LNAME: reference of the scale not given here; as to AUC, modulator BJ.NAD+: reference of the scale not given here; as to AUC, modulator BJ.NMMA: reference of the scale not given here; as to AUC, modulator BJ.Nec-1: reference of the scale not given here; as to AUC, modulator BJ.Pepstatin: reference of the scale not given here; as to AUC, modulator BJ.TLCK: reference of the scale not given here

Structure (SMILES): COc1c2c(cc3c1C(CC(=O)/C=C/c1ccccc1)[N+](C)(C)CC3)OCO2 (stereo not shown) [CIL77]
- AUC HT.ATA (HT-1080): 0.05492
- AUC HT.ActD (HT-1080): 0.0959
- AUC HT.BHA (HT-1080): −0.008714
- AUC HT.BHT (HT-1080): −0.07998
- AUC HT.BocD (HT-1080): −0.02828
- AUC HT.CHX (HT-1080): 0.1436
- AUC HT.Co2+ (HT-1080): 0.1261
- AUC HT.CspA (HT-1080): −0.05791
- AUC HT.DPQ (HT-1080): 0.003496
- AUC HT.EGTA (HT-1080): −0.00345
- AUC HT.Gd3+ (HT-1080): −0.0368
- AUC HT.LNAME (HT-1080): 0.01693
- AUC HT.Lmim (HT-1080): 0.02573
- AUC HT.NAD+ (HT-1080): 0.003357
- AUC HT.NMMA (HT-1080): −0.01509
- HT.atoc (AUC) (HT-1080): 0.02076
- HT.bCarotene (AUC) (HT-1080): −0.005078
- HT.deferox (AUC) (HT-1080): 0.09145
- HT.digoxin (AUC) (HT-1080): −0.01405
- HT.trolox (AUC) (HT-1080): −0.01064
- HT.zVAD (AUC) (HT-1080): 0.02554
- AUC, modulator BJ.3MA (BJeLR): −0.05728
- AUC, modulator BJ.ALLN (BJeLR): 0.01826
- AUC, modulator BJ.Boc D (BJeLR): 0.05622
- AUC, modulator BJ.CHX (BJeLR): 0.2548
- AUC, modulator BJ.Co2+ (BJeLR): 0.1866
- AUC, modulator BJ.DPQ (BJeLR): −0.009273
- AUC, modulator BJ.Gd3+ (BJeLR): −0.007344
- AUC, modulator BJ.LNAME (BJeLR): 0.03349
- AUC, modulator BJ.Lmin/NAD+ (BJeLR): 0.04982
- AUC, modulator BJ.Lmin (BJeLR): −0.04848
- AUC, modulator BJ.NAD+ (BJeLR): −0.05677
- AUC, modulator BJ.NMMA (BJeLR): −0.02771
- AUC, modulator BJ.Nec-1 (BJeLR): −0.06543
- AUC, modulator BJ.Pepstatin (BJeLR): 0.07338
- AUC, modulator BJ.TLCK (BJeLR): −0.05565

Structure (SMILES): C=C(C)[C@H]1Cc2c(ccc3c2O[C@@H]2COc4cc(OC)c(OC)cc4[C@@H]2C3=O)O1 [Rotenone]
- AUC HT.ATA (HT-1080): 0.05899
- AUC HT.ActD (HT-1080): 0.1062
- AUC HT.BHA (HT-1080): −0.02184
- AUC HT.BHT (HT-1080): 0.02467
- AUC HT.BocD (HT-1080): 0.05103
- AUC HT.CHX (HT-1080): 0.07793
- AUC HT.Co2+ (HT-1080): 0.2003
- AUC HT.CspA (HT-1080): −0.1722
- AUC HT.DPQ (HT-1080): −0.005403
- AUC HT.EGTA (HT-1080): 0.002258
- AUC HT.Gd3+ (HT-1080): 0.01051
- AUC HT.LNAME (HT-1080): −0.007377
- AUC HT.Lmim (HT-1080): 0.1413
- AUC HT.NAD+ (HT-1080): 0.1563
- AUC HT.NMMA (HT-1080): 0.007832
- AUC HT.Nec-1 (HT-1080; HT-1080, modulator Nec-1): 0.003921
- AUC HT.Pepstatin (HT-1080; HT-1080, modulator Pepstatin): −0.02255
- AUC HT.SP600125 (HT-1080; HT-1080, modulator SP600125): −0.01964
- AUC HT.TLCK (HT-1080; HT-1080, modulator TLCK): 0.0438
- AUC HT.U0126 (HT-1080; HT-1080, modulator U0126): 0.1384
- HT.atoc (AUC) (HT-1080): 0.04769
- HT.bCarotene (AUC) (HT-1080): 0.003594
- HT.deferox (AUC) (HT-1080): 0.347
- HT.digoxin (AUC) (HT-1080): 0.1617
- HT.trolox (AUC) (HT-1080): 0.003895
- HT.zVAD (AUC) (HT-1080): 0.01972
- AUC, modulator HT.3MA (HT-1080; HT-1080 cells, lethal compound cotreated with modulator 3MA, modulatory profile value (AUC)): 0.06289
- AUC, modulator HT.ALLN (HT-1080; HT-1080 cells, lethal compound cotreated with modulator ALLN, modulatory profile value (AUC)): 0.07973
- AUC, modulator BJ.3MA (BJeLR): −0.0266
- AUC, modulator BJ.ALLN (BJeLR): −0.03435
- AUC, modulator BJ.Boc D (BJeLR): −0.01674
- AUC, modulator BJ.CHX (BJeLR): 0.1066
- AUC, modulator BJ.Co2+ (BJeLR): 0.0838
- AUC, modulator BJ.DPQ (BJeLR): −0.02278
- AUC, modulator BJ.Gd3+ (BJeLR): 0.01421
- AUC, modulator BJ.LNAME (BJeLR): −0.01131
- AUC, modulator BJ.Lmin/NAD+ (BJeLR): 0.1439
- AUC, modulator BJ.Lmin (BJeLR): 0.06492
- AUC, modulator BJ.NAD+ (BJeLR): 0.1037
- AUC, modulator BJ.NMMA (BJeLR): 0.005801
- AUC, modulator BJ.Nec-1 (BJeLR): −0.02888
- AUC, modulator BJ.Pepstatin (BJeLR): 0.02007
- AUC, modulator BJ.TLCK (BJeLR): −0.02169
- AUC, modulator BJ.atoc (BJeLR; lethal compound cotreated with modulator atoc): 0.05116
- AUC, modulator BJ.trolox (BJeLR; lethal compound cotreated with modulator trolox): −0.01075
- AUC, modulator BJ.zVAD (BJeLR; lethal compound cotreated with modulator zVAD): 0.04408

Structure (SMILES): Cc1cc(C)c2c(=O)n(CC(=O)NCCCN3CCN(c4ccccc4F)CC3)sc2n1 [CIL50]
- AUC HT.ATA (HT-1080): 0.06518
- AUC HT.ActD (HT-1080): −0.00775
- AUC HT.BHA (HT-1080): 0.006655
- AUC HT.BHT (HT-1080): −0.06029
- AUC HT.BocD (HT-1080): 0.004017
- AUC HT.CHX (HT-1080): −0.04825
- AUC HT.Co2+ (HT-1080): −0.08688
- AUC HT.CspA (HT-1080): −0.01271
- AUC HT.DPQ (HT-1080): −0.01588
- AUC HT.EGTA (HT-1080): −0.02244
- AUC HT.Gd3+ (HT-1080): −0.03877
- AUC HT.LNAME (HT-1080): 0.01806
- AUC HT.Lmim (HT-1080): −0.00536
- AUC HT.NAD+ (HT-1080): 0.009799
- AUC HT.NMMA (HT-1080): 0.004196
- HT.atoc (AUC) (HT-1080): 0.06547
- HT.bCarotene (AUC) (HT-1080): 0.01961
- HT.deferox (AUC) (HT-1080): −0.04084
- HT.digoxin (AUC) (HT-1080): 0.02124
- HT.trolox (AUC) (HT-1080): −0.01565
- HT.zVAD (AUC) (HT-1080): 0.02907
- AUC, modulator BJ.3MA (BJeLR): −0.001613
- AUC, modulator BJ.ALLN (BJeLR): −0.008924
- AUC, modulator BJ.Boc D (BJeLR): 0.03113
- AUC, modulator BJ.CHX (BJeLR): 0.1415
- AUC, modulator BJ.Co2+ (BJeLR): −0.0178
- AUC, modulator BJ.DPQ (BJeLR): −0.03869
- AUC, modulator BJ.Gd3+ (BJeLR): −0.02113
- AUC, modulator BJ.LNAME (BJeLR): 0.03227
- AUC, modulator BJ.Lmin/NAD+ (BJeLR): 0.01676
- AUC, modulator BJ.Lmin (BJeLR): 0.03123
- AUC, modulator BJ.NAD+ (BJeLR): −0.08482
- AUC, modulator BJ.NMMA (BJeLR): −0.004554
- AUC, modulator BJ.Nec-1 (BJeLR): −0.05683
- AUC, modulator BJ.Pepstatin (BJeLR): 0.003838
- AUC, modulator BJ.TLCK (BJeLR): −0.05225
